Experimental data taken from ChEMBL document CHEMBL1201862, “PubChem BioAssay data set” (2004).
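A five-concentration, 48-hour dose response in 96-well plates underlies each endpoint, interpolated linearly between surrounding concentrations. At the GI50, growth is halved.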 The source made the active and inactive calls. No stated cut-off is given here; in the data, active = GI50 up to about 1.1 µM and inactive = higher.

Columns and labels:
Test in all cases: DTP human tumour cell line panel, 48 h
HCC 2998 = system: HCC 2998
HOP-62 = system: HOP-62
CAKI-1 = system: CAKI-1
PC-3 = system: PC-3
RPMI-8226 = system: RPMI-8226
SR = system: SR
OVCAR-8 = system: OVCAR-8
NCI-H226 = system: NCI-H226
SK-MEL-2 = system: SK-MEL-2
HCT-116 = system: HCT-116
HCT-15 = system: HCT-15
K562 = system: K562
LOX IMVI = system: LOX IMVI
NCI/ADR-RES = system: NCI/ADR-RES
DU-145 = system: DU-145
SN12C = system: SN12C
SK-MEL-28 = system: SK-MEL-28
Malme-3M = system: Malme-3M
SNB-75 = system: SNB-75
TK-10 = system: TK-10

Structure (SMILES) | GI50 (HCC 2998) | GI50 (HOP-62) | GI50 (CAKI-1) | GI50 (PC-3) | GI50 (RPMI-8226) | GI50 (SR) | GI50 (OVCAR-8) | GI50 (NCI-H226) | GI50 (SK-MEL-2) | GI50 (HCT-116) | GI50 (HCT-15) [µM] | GI50 (K562) | GI50 (LOX IMVI) | GI50 (NCI/ADR-RES) | GI50 (DU-145) | GI50 (SN12C) | GI50 (SK-MEL-28) | GI50 (Malme-3M) | GI50 (SNB-75) | GI50 (TK-10)
O=[N+]([O-])c1ccc(C2=Nn3c(nnc3-c3ccc(Cl)cc3)SC2)o1 | 2.39 µM (inactive) | 9.12 µM (inactive) | 9.2 µM (inactive) | 5.32 µM (inactive) | 2.1 µM (inactive) | 0.394 µM (active) | 9.91 µM (inactive) | 16.4 µM (inactive) | 10.5 µM (inactive) | 5.71 µM (inactive) | 2.33 | 2.16 µM (inactive) | 3.93 µM (inactive) | 14.3 µM (inactive) | 19.2 µM (inactive) | 8.38 µM (inactive) | 12.2 µM (inactive) | 6.46 µM (inactive) | 11.5 µM (inactive) | 14.9 µM (inactive)
CCOC(=O)C(Cc1ccc(O)cc1)Nc1nc(=O)c2c(=O)oc(Cl)cc2o1 (stereo not given) | 6.59 µM (inactive) | 12.5 µM (inactive) | 4.73 µM (inactive) | 8.93 µM (inactive) | 2.67 µM (inactive) | 2.7 µM (inactive) | 3.39 µM (inactive) | 19.7 µM (inactive) | 12.5 µM (inactive) | 6.38 µM (inactive) | 4.33 | 3.06 µM (inactive) | 4.62 µM (inactive) | 20.9 µM (inactive) | 17.3 µM (inactive) | 6.28 µM (inactive) | 4.13 µM (inactive) | 3.17 µM (inactive) | 4.91 µM (inactive) | 6.58 µM (inactive)
NC1=Nc2ccccc2Sc2nnc(-c3ccc(Cl)cc3)n21 | > 100 µM (inactive) | 23.7 µM (inactive) | 72.4 µM (inactive) | 16.5 µM (inactive) | 87.3 µM (inactive) | 11.2 µM (inactive) | 26.7 µM (inactive) | > 100 µM (inactive) | > 100 µM (inactive) | 9.53 µM (inactive) | 7.16 | 12.2 µM (inactive) | 7.03 µM (inactive) | 33.2 µM (inactive) | 49.2 µM (inactive) | 38.1 µM (inactive) | > 100 µM (inactive) | > 100 µM (inactive) | 17.3 µM (inactive) | 40.8 µM (inactive)
COC(=O)C12OC(C)(C(CC(=O)OC(C)(C)C)C1=O)C1C(=O)N(c3ccccc3)C(=O)C12 (stereo not given) | > 100 µM (inactive) | > 100 µM (inactive) | > 100 µM (inactive) | > 100 µM (inactive) | > 100 µM (inactive) | > 100 µM (inactive) | > 100 µM (inactive) | > 100 µM (inactive) | > 100 µM (inactive) | > 100 µM (inactive) | > 100 | > 100 µM (inactive) | > 100 µM (inactive) | > 100 µM (inactive) | > 100 µM (inactive) | > 100 µM (inactive) | > 100 µM (inactive) | > 100 µM (inactive) | > 100 µM (inactive) | > 100 µM (inactive)
N#Cc1c(-c2ccccc2)cc(Nc2ccc(F)cc2)n2c1nc1ccccc12 | 3.75 µM (inactive) | 2.83 µM (inactive) | 3.2 µM (inactive) | 1.83 µM (inactive) | 3.56 µM (inactive) | 3.89 µM (inactive) | 3.12 µM (inactive) | 2.81 µM (inactive) | 1.43 µM (inactive) | 1.83 µM (inactive) | 3.26 | 5.61 µM (inactive) | 3.33 µM (inactive) | 2.26 µM (inactive) | 2.94 µM (inactive) | 2.02 µM (inactive) | 8.32 µM (inactive) | 3.66 µM (inactive) | 1.72 µM (inactive) | 3.55 µM (inactive)
O=Cc1[nH]c(=O)[nH]c(=O)c1C(=O)O | > 100 µM (inactive) | > 100 µM (inactive) | > 100 µM (inactive) | > 100 µM (inactive) | > 100 µM (inactive) | > 100 µM (inactive) | > 100 µM (inactive) | > 100 µM (inactive) | > 100 µM (inactive) | > 100 µM (inactive) | > 100 | > 100 µM (inactive) | > 100 µM (inactive) | > 100 µM (inactive) | > 100 µM (inactive) | > 100 µM (inactive) | > 100 µM (inactive) | > 100 µM (inactive) | 43.8 µM (inactive) | > 100 µM (inactive)
